± gives the expanded uncertainty stated by the source.
Test: xn = mol fraction of the nth substance listed
Settings: 101 kPa, Liquid; for viscosity: Capillary tube (Ostwald / Ubbelohde) method; for mass density: Vibrating tube method

Question: With CC(C)CC(C)(C)C [2,2,4-trimethylpentane] + CCCO as the compound, how does the viscosity (298.15 K, x1 = 0.1) read?
Answer: 1.518 ± 0.018 mPa·s

Question: And the viscosity (298.15 K, x1 = 0.2)?
Answer: 1.231 ± 0.014 mPa·s

Question: And the viscosity (298.15 K, x1 = 0.3)?
Answer: 1.007 ± 0.012 mPa·s

Question: What about the viscosity (298.15 K, x1 = 0.4) of the same compound?
Answer: 0.84 ± 0.01 mPa·s

Question: What about the viscosity (298.15 K, x1 = 0.4999) of the same compound?
Answer: 0.718 ± 0.008 mPa·s

Question: And the viscosity (298.15 K, x1 = 0.5996)?
Answer: 0.644 ± 0.008 mPa·s

Question: What about the viscosity (298.15 K, x1 = 0.6998) of the same compound?
Answer: 0.572 ± 0.007 mPa·s

Question: And the viscosity (298.15 K, x1 = 0.7995)?
Answer: 0.519 ± 0.006 mPa·s

Question: And the viscosity (298.15 K, x1 = 0.9)?
Answer: 0.491 ± 0.006 mPa·s

Question: What about the viscosity (298.15 K, x1 = 1) of the same compound?
Answer: 0.478 ± 0.006 mPa·s

Question: What about the mass density (298.15 K, x1 = 0.02) of the same compound?
Answer: 795.39 ± 2 kg/m3

Question: What about the mass density (298.15 K, x1 = 0.04) of the same compound?
Answer: 790.82 ± 2 kg/m3

Question: What about the mass density (298.15 K, x1 = 0.06) of the same compound?
Answer: 786.22 ± 2 kg/m3

Question: What about the mass density (298.15 K, x1 = 0.1) of the same compound?
Answer: 777.82 ± 2 kg/m3

Question: What about the mass density (298.15 K, x1 = 0.2) of the same compound?
Answer: 759.71 ± 2 kg/m3

Question: What about the mass density (298.15 K, x1 = 0.3) of the same compound?
Answer: 744.88 ± 2 kg/m3

Question: And the mass density (298.15 K, x1 = 0.4)?
Answer: 732.42 ± 2 kg/m3

Question: What about the mass density (298.15 K, x1 = 0.4999) of the same compound?
Answer: 721.93 ± 2 kg/m3

Question: And the mass density (298.15 K, x1 = 0.5996)?
Answer: 712.88 ± 2 kg/m3

Question: And the mass density (298.15 K, x1 = 0.6998)?
Answer: 704.9 ± 2 kg/m3

Question: And the mass density (298.15 K, x1 = 0.7995)?
Answer: 698.16 ± 2 kg/m3

Question: And the mass density (298.15 K, x1 = 0.9)?
Answer: 692.36 ± 2 kg/m3

Question: What about the mass density (298.15 K, x1 = 1) of the same compound?
Answer: 687.82 ± 2 kg/m3

Question: What about the viscosity (303.15 K, x1 = 0.1) of the same compound?
Answer: 1.361 ± 0.016 mPa·s

Question: And the viscosity (303.15 K, x1 = 0.2)?
Answer: 1.113 ± 0.013 mPa·s

Question: What about the viscosity (303.15 K, x1 = 0.3) of the same compound?
Answer: 0.909 ± 0.011 mPa·s

Question: What about the viscosity (303.15 K, x1 = 0.4) of the same compound?
Answer: 0.769 ± 0.009 mPa·s

Question: And the viscosity (303.15 K, x1 = 0.4999)?
Answer: 0.664 ± 0.008 mPa·s

Question: And the viscosity (303.15 K, x1 = 0.5996)?
Answer: 0.585 ± 0.007 mPa·s

Question: And the viscosity (303.15 K, x1 = 0.6998)?
Answer: 0.531 ± 0.006 mPa·s

Question: What about the viscosity (303.15 K, x1 = 0.7995) of the same compound?
Answer: 0.488 ± 0.006 mPa·s

Question: And the viscosity (303.15 K, x1 = 0.9)?
Answer: 0.464 ± 0.006 mPa·s

Question: What about the viscosity (303.15 K, x1 = 1) of the same compound?
Answer: 0.453 ± 0.005 mPa·s

Question: And the mass density (303.15 K, x1 = 0.02)?
Answer: 791.36 ± 2 kg/m3

Question: And the mass density (303.15 K, x1 = 0.04)?
Answer: 786.77 ± 2 kg/m3

Question: And the mass density (303.15 K, x1 = 0.06)?
Answer: 782.15 ± 2 kg/m3

Question: What about the mass density (303.15 K, x1 = 0.1) of the same compound?
Answer: 773.72 ± 2 kg/m3

Question: What about the mass density (303.15 K, x1 = 0.2) of the same compound?
Answer: 755.54 ± 2 kg/m3

Question: What about the mass density (303.15 K, x1 = 0.3) of the same compound?
Answer: 740.67 ± 2 kg/m3

Question: And the mass density (303.15 K, x1 = 0.4)?
Answer: 728.17 ± 2 kg/m3

Question: And the mass density (303.15 K, x1 = 0.4999)?
Answer: 717.66 ± 2 kg/m3

Question: And the mass density (303.15 K, x1 = 0.5996)?
Answer: 708.61 ± 2 kg/m3

Question: What about the mass density (303.15 K, x1 = 0.6998) of the same compound?
Answer: 700.62 ± 2 kg/m3

Question: What about the mass density (303.15 K, x1 = 0.7995) of the same compound?
Answer: 693.9 ± 2 kg/m3

Question: What about the mass density (303.15 K, x1 = 0.9) of the same compound?
Answer: 688.13 ± 2 kg/m3

Question: And the mass density (303.15 K, x1 = 1)?
Answer: 683.68 ± 2 kg/m3

Question: And the viscosity (308.15 K, x1 = 0.1)?
Answer: 1.223 ± 0.014 mPa·s

Question: And the viscosity (308.15 K, x1 = 0.2)?
Answer: 1.004 ± 0.012 mPa·s

Question: What about the viscosity (308.15 K, x1 = 0.3) of the same compound?
Answer: 0.831 ± 0.01 mPa·s

Question: What about the viscosity (308.15 K, x1 = 0.4) of the same compound?
Answer: 0.709 ± 0.008 mPa·s

Question: And the viscosity (308.15 K, x1 = 0.4999)?
Answer: 0.613 ± 0.007 mPa·s

Question: And the viscosity (308.15 K, x1 = 0.5996)?
Answer: 0.543 ± 0.006 mPa·s

Question: And the viscosity (308.15 K, x1 = 0.6998)?
Answer: 0.5 ± 0.006 mPa·s

Question: What about the viscosity (308.15 K, x1 = 0.7995) of the same compound?
Answer: 0.46 ± 0.006 mPa·s

Question: And the viscosity (308.15 K, x1 = 0.9)?
Answer: 0.438 ± 0.005 mPa·s

Question: What about the viscosity (308.15 K, x1 = 1) of the same compound?
Answer: 0.429 ± 0.005 mPa·s

Question: What about the mass density (308.15 K, x1 = 0.02) of the same compound?
Answer: 787.26 ± 2 kg/m3

Question: What about the mass density (308.15 K, x1 = 0.04) of the same compound?
Answer: 782.66 ± 2 kg/m3

Question: And the mass density (308.15 K, x1 = 0.06)?
Answer: 778.03 ± 2 kg/m3

Question: And the mass density (308.15 K, x1 = 0.1)?
Answer: 769.57 ± 2 kg/m3

Question: And the mass density (308.15 K, x1 = 0.2)?
Answer: 751.33 ± 2 kg/m3

Question: What about the mass density (308.15 K, x1 = 0.3) of the same compound?
Answer: 736.41 ± 2 kg/m3

Question: And the mass density (308.15 K, x1 = 0.4)?
Answer: 723.88 ± 2 kg/m3

Question: What about the mass density (308.15 K, x1 = 0.4999) of the same compound?
Answer: 713.35 ± 2 kg/m3

Question: And the mass density (308.15 K, x1 = 0.5996)?
Answer: 704.28 ± 2 kg/m3

Question: And the mass density (308.15 K, x1 = 0.6998)?
Answer: 696.31 ± 2 kg/m3

Question: What about the mass density (308.15 K, x1 = 0.7995) of the same compound?
Answer: 689.61 ± 2 kg/m3

Question: And the mass density (308.15 K, x1 = 0.9)?
Answer: 683.86 ± 2 kg/m3

Question: And the mass density (308.15 K, x1 = 1)?
Answer: 679.52 ± 2 kg/m3
